Experimental findings from patent US20230414657A1, “Novel compositions for neutralizing toxic effects of hydrogen peroxide in living cells or tissues” (Dzala LLC, priority 2020, published 2023) are described below.

Read-outs that look alike come from different tables or passages of the source.

Data set [1] relates to C. elegans. It counts as in vivo. The procedure:
Mitochondrial staining was performed as described previously^3,4. Briefly, L1 worms were grown on plate or in liquid culture for 2-3 days at 15° C. […] Next, the excess dye was washed off with M9 buffer and worms were incubated in 100 μl M9 for 30 min to eliminate the excess dye in the gut. Finally, worms were paralyzed with 0.5 mM Levamizol (Sigma-Aldrich), placed on slides covered with a thin layer of 2% agarose on top of which the coverslip (22×22 mm, Menzel-Glaser no. 1) was fixed using nail polish. We used a Zeiss LSM 700 inverted laser scanning confocal microscope and a Zeiss LCI Plan-Neofluar 63×/1.3 ImmCorr DIC M27 objective to image mitochondria (Zeiss, Germany). MitoTracker Red CMXRos was excited at 555 nm and the emission above 560 nm was acquired by the second PMT. Optical sections at 0.1×0.1×0.5 μm^3 x-y-z resolution were collected in […]. Final images were adjusted for intensity and merged in Fiji. No non-linear adjustments were made.

The test system of data set [2] is C. elegans. Nature of the data set: Oxygen consumption rate (OCR), Seahorse XFe96. The format is in vivo. The procedure: Oxygen consumption of worms was measured with a Seahorse XFe96 system (Seahorse Bioscience, North Billerica, MA), as previously described^4. L3 larvae of the different strains were grown on plates or in liquid culture and supplemented for 2-4 days as described for each experiment. After removing bacteria and debris, approximately 100 worms were pipetted into each well of a 96-well Seahorse XF^e assay plate and OCR was measured until it stabilized. Then, 3 subsequent measurements were made at 6.5-min intervals. Finally, the exact number of worms in each well was counted and used for normalization. A small number of abnormal readings were also filtered out at this stage. On average, 7-8 wells (technical replicates) were used for each condition. Normalized OCR values were averaged for the last 3 measurements for each strain and condition. Four biological replicates were analyzed for each condition.

In data set [3] the test system is C. elegans. Nature of the data set: Growth rate / worm size. It counts as in vivo. As to conditions: for Growth: 100 mM H2O2 plus supplement (10 mM GA, 100 μM glycine or 500 μM L-serine). The procedure: Synchronized L1 worms were incubated at 15° C. on plates or in liquid culture and exposed to different conditions as indicated. Single worms were selected randomly from the plates or aliquots were taken from the liquid cultures and added to NGM plates for immediate visualization. 25 worms per treatment were measured at 24-48 hr intervals and all growth curves were done four times.

For data set [4], the system named is C. elegans. Nature of the data set: Quantification of glutathione (GSH/GSSG-Glo). It counts as in vivo. The following applies: for GSH-to-GSSG ratio: plus supplement; for GSH/GSSG ratio: H2O2-treated worms plus 100 μM glycine or 500 μM L-serine. The procedure: Sample preparation was performed as described previously with some modifications^6. From each condition 10,000 synchronized animals were harvested and washed 3 times with sterile water. […] To thoroughly lyse the worms, 5 cycles of freezing and thawing were performed in a water bath at 37° C., followed by a 1-min sonication. The samples were then centrifuged and the supernatant tested for protein estimation and GSH quantification. Total GSH, GSSG, and GSH/GSSG ratios were quantified using the GSH/GSSG-Glo assay kit (Promega) following the instructions of the manufacturer. Briefly, each sample was tested in triplicate in 96-well culture plates with total glutathione or GSSG lysis reagent, for total glutathione or GSSG measurement, respectively. The GSH probe, luciferin-NT, was converted to luciferin, which is coupled to a firefly luciferase. The plates were then read in an […] plate reader (Perkin Elmer, United States). The GSSG value was subtracted from the total glutathione to calculate GSH levels and GSH/GSSG ratio. Four biological replicates were analyzed for each condition.

Data set [5] has as its system C. elegans. Kind of data set: H2O2 accumulation in worms (Amplex Red). As to conditions: peroxide + GA with glutathione synthesis blocked by BSO. It counts as in vivo. The procedure: Hydrogen peroxide was measured using the Amplex Red hydrogen peroxide/peroxidase assay kit (Molecular Probes, Eugene, OR), adapting the protocol to C. elegans. In the presence of hydrogen peroxide, Amplex Red is oxidized by horseradish peroxidase to form a red-fluorescent oxidation product whose fluorescence intensity can be measured.
To measure ROS production from C. elegans, 5000-7000 L1 worms were exposed to each condition for 2-3 days as indicated and then washed four times in 1 ml of the reaction buffer supplied with the kit. Volumes were adjusted to 700-1200 nematodes/50 μl and 50 μl was pipetted into a 96-well plate. A total of 50 μl of the Amplex Red reaction buffer was then added to the wells, and after 1 hr fluorescence was measured with a fluorescence microplate reader using excitation at 530±12.5 nm and fluorescence detection at 590±17.5 nm. Background fluorescence, determined for a no-H2O2 control reaction, was subtracted from each value. The significance of differences between conditions was determined by an unpaired fest. GraphPadPrism 8.0 was used for these calculations. Three biological replicates were carried out for each condition.

Data set [6] deals with C. elegans. Nature of the data set: NADPH and NADP+ quantification by LC-MS. As to conditions: 100 mM H2O2 plus 10 mM glycolate, 100 μM glycine or 500 μM L-serine, 3 days. The format is in vivo.
Protocol: To measure NADP^+ and NADPH from C. elegans, 10000-15000 L1 worms were exposed to each condition in duplicates for 3 days and then washed four times with H2O. […] 25 µM solutions of each nucleotide were treated in parallel as standards. Homogenization for 15 min at 4° C. and 300 g was carried out in a TissueLyser II (Qiagen) after adding ⅓ volume of 0.5 mm zirconium beads. The resulting mixture was centrifuged at 13,000 g and the supernatant transferred to a new tube.
LC-MS/MS analysis of the samples was performed on a high-performance liquid chromatography (HPLC) system (1200 Agilent) coupled online to G2-S QTOF (Waters). For normal phase chromatography Bridge Amide 3.5 ml (2.1×100 mm) column from Waters was used. The mobile phase composed of eluent A and eluent B (40% acetonitrile, 0.1 mM ammonium acetate and 0.01% NH40H) was applied with the following gradient program: Eluent B, from 0% to 100% within 18 min; 100% from 18 min to 21 min; 0% from 21 min to 26 min. The flow rate was set at 0.3 ml/min. The spray voltage was set at 3.0 kV and the source temperature was set at 120° C. Nitrogen was used as both cone gas (50 L/h) and desolvation gas (800 L/h), and argon as the collision gas. MS^E mode was used with Bridge Amide 3.5 µl (2.1×100 mm) column in ESI negative ionization polarity for the detection of the nucleosides. Mass chromatograms and mass spectral data were acquired and processed by MassLynx software (Waters). Three and four biological replicates were analyzed for each condition of mel-32 RNAi and EV, respectively.
The test system of data set [7] is C. elegans. The following applies: in vivo, 3 days. The procedure: To quantify the uptake of glycolate, glycine and L-serine approximately 10000 synchronized L1 were incubated in liquid cultures as described above and grown for 3 days in the presence of […] of [1-^14C]-glycolate, [1-^14C]-glycine or L-[1-^14C]-serine. At this stage, worms were snap-frozen and stored at […]. Animals were lysed by freezing/thawing and extracted by using the Bligh and Dyer method^7. After phase separation, organic and aqueous fractions were recovered from the lower and upper phases, respectively. After drying and concentration, radioactivity was quantified using a scintillation counter and normalized for total number of worms.

The test system of data set [8] is C. elegans. Kind of data set: Peroxide treatment of mutant, RNAi or unstressed worms: MMP, OCR and growth read together. The format is in vivo. The following applies: for Restoration of MMP, OCR or growth rate: H2O2, RNAi against mel-32 or gcst-1; for MMP, OCR, growth rate: H2O2, worms fed with empty vector RNAi bacteria; for Response to glycine and L-serine: ghpr-1 and ghpr-1, ldh-1, gox-1 mutants fed with mel-32 RNAi bacteria; for Deleterious effects of peroxide (MMP, respiration, size): ghpr-1 single and ghpr-1, gox-1, ldh-1 triple mutants, H2O2 plus glycine or L-serine. The text has this: C. elegans wild-type (N2) strain was received from Caenorhabditis Genetics Center, USA. Mutant strains were generated using the following primers. Idh-1: […] and […]; C31C9.2 (ghpr-1): […] and […]and F41E6.5 (gox-1): […]and[…]. […] Progeny of the rescued strains were genotyped for homozygous deletion with PCR primers for three generations. All mutants were outcrossed at least twice with the wild type to eliminate background mutations. Double and triple mutants were obtained by crossing single or double mutants and selecting the homozygous progeny by PCR.
For RNAi experiments in liquid, E. coli HT115 containing L4440 empty vector or the indicated cDNA fragment in L4440 was inoculated in 100 ml of LB containing 100 μg/ml ampicillin and incubated overnight at 37° C. in a shaking incubator at 250 rpm. To induce the production of dsRNA, a final concentration 0.8 mM IPTG was added to the collected bacterial pellet diluted 100-fold and incubated overnight at 25° C. in a shaking incubator at 250 rpm. Bacteria were then pelleted by centrifugation at 4000 rpm for 5 mins and resuspended in 200 μl S-medium containing 100 μg/ml ampicillin and 0.8 mM IPTG.
A population of synchronized L1 larvae was added to 30-ml glass tubes containing 2.5 ml of S-complete medium (liquid culture)^2 and NA22 or induced RNAi bacteria at an OD600 of 1.9. […] Worms were incubated at 15° C. and 150 rpm in a shaking incubator for 2-6 days, refreshing the medium every 2 days.
Mitochondrial staining was performed as described previously^3,4. Briefly, L1 worms were grown on plate or in liquid culture for 2-3 days at 15° C. Subsequently, they were pelleted in a 15-ml tube, rinsed twice with H2O and resuspended in 100 μl of M9. 5 μM MitoTracker Red CMXRos (Thermo Fisher Scientific, Germany) in DMSO was added to the worm suspension and incubated in this solution for 1.5 hr at room temperature in the dark. Next, the excess dye was washed off with M9 buffer and worms were incubated in 100 μl M9 for 30 min to eliminate the excess dye in the gut. Finally, worms were paralyzed with 0.5 mM Levamizol (Sigma-Aldrich), placed on slides covered with a thin layer of 2% agarose on top of which the coverslip (22×22 mm, Menzel-Glaser no. 1) was fixed using nail polish. We used a Zeiss LSM 700 inverted laser scanning confocal microscope and a Zeiss LCI Plan-Neofluar 63×/1.3 ImmCorr DIC M27 objective to image mitochondria (Zeiss, Germany). MitoTracker Red CMXRos was excited at 555 nm and the emission above 560 nm was acquired by the second PMT. Optical sections at 0.1×0.1×0.5 μm^3 x-y-z resolution were collected in a 4D hyperstack. Final images were adjusted for intensity and merged in Fiji. No non-linear adjustments were made.
Synchronized L1 worms were incubated at 15° C. on plates or in liquid culture and exposed to different conditions as indicated. Single worms were selected randomly from the plates or aliquots were taken from the liquid cultures and added to NGM plates for immediate visualization. 25 worms per treatment were measured at 24-48 hr intervals and all growth curves were done four times. Images were analyzed using FIJI (Image J) software, with length measurements derived by the sum-total of a number of segmented lines of known length, down the center of the worm as described previously^5.
Oxygen consumption of worms was measured with a Seahorse XFe96 system (Seahorse Bioscience, North Billerica, MA), as previously described^4. L3 larvae of the different strains were grown on plates or in liquid culture and supplemented for 2-4 days as described for each experiment. After removing bacteria and debris, approximately 100 worms were pipetted into each well of a 96-well Seahorse XF^e assay plate and OCR was measured until it stabilized. Then, 3 subsequent measurements were made at 6.5-min intervals. Finally, the exact number of worms in each well was counted and used for normalization.

Setting [9] is: 100 mM H2O2 plus supplement (10 mM GA, 100 μM glycine or 500 μM L-serine).
The mark [10] stands for this setting: H2O2-treated animals defective in mel-32 or gcst-1 (RNAi).
The mark [11] stands for this setting: H2O2-treated worms fed with empty vector.

On to `CCCCS(=N)(=O)CCC(N)C(=O)O` [BSO, L-buthioninesulfoximine, reference compound], for which, in the data set with C. elegans [1] (H2O2 + GA + BSO (0.5 mM)), the “Mitochondrial membrane potential (MMP)” value is reported as “prevented the GA-mediated improvement”. For the same molecule, the “Respiration rate (OCR)” value in the data set on C. elegans [2] (H2O2 + GA + BSO (0.5 mM)) was “prevented the GA-mediated improvement”. In the data set on C. elegans [3] (H2O2 + GA + BSO (0.5 mM)), the Growth rate entry is “prevented the GA-mediated improvement”. Also, the Biosynthesis of glutathione result with C. elegans [4] (0.5 mM BSO, FIG. 2) is “inhibited”. For the same molecule, in the data set with C. elegans [4] (H2O2 + GA + BSO, control 107.5), the GSH/GSSG per worm amounted to 36. The Total glutathione with C. elegans [4] (H2O2 + GA + inhibitor BSO) is on record as 65 % of the control. Further, in the data set with C. elegans [5], the “Accumulation of H2O2” value is recorded as “unchanged”.
In the case of `N[C@@H](CO)C(=O)O` [L-serine], the “Mitochondrial membrane potential (MMP)” value in the data set with C. elegans [1] (setting [9]) was “able to restore”. Moreover, the “Respiration rate (OCR)” value with C. elegans [2] (setting [9]) is reported as “able to restore”. In addition, the Growth entry in the data set with C. elegans [3] was “able to restore”. Further, in the data set with C. elegans [4] (setting [10]), the GSH-to-GSSG ratio entry is recorded as “strongly reduced”. Besides, the GSH-to-GSSG ratio entry in the data set on C. elegans [4] (setting [11]) is given as “maintained close to control levels”. The GSH/GSSG ratio entry in the data set on C. elegans [4] is reported as “able to restore”. The “Ratio of NADPH to NADP+” value in the data set on C. elegans [6] is “much weaker, but still significant, increase”. Further, the “Radioactivity in labelled animals (uptake) relative to [14C]GA” value in the data set on C. elegans [7] is 3 times higher. Further, in the data set with C. elegans [8], the “Restoration of MMP, OCR or growth rate” value is on record as “none of these three compounds were able to restore”; the “MMP, OCR, growth rate” value is “restored parameters”; the “Response to glycine and L-serine” value is “loss of response”; the “Deleterious effects of peroxide (MMP, respiration, size)” value was “overcome the deleterious effects of peroxide”.
On to `NCC(=O)O` [glycine], for which the “Mitochondrial membrane potential (MMP)” value with C. elegans [1] (setting [9]) is recorded as “able to restore”. Further, the “Respiration rate (OCR)” value in the data set with C. elegans [2] (setting [9]) is reported as “able to restore”. In the data set with C. elegans [3], the Growth entry is on record as “able to restore”. Besides, the GSH-to-GSSG ratio result with C. elegans [4] (setting [10]) is “strongly reduced”. Besides, the GSH-to-GSSG ratio result in the data set with C. elegans [4] (setting [11]) is “maintained close to control levels”. Besides, in the data set with C. elegans [4], the GSH/GSSG ratio result is “able to restore”. Besides, the “Ratio of NADPH to NADP+” value with C. elegans [6] is on record as “fully rescued”. In addition, in the data set with C. elegans [8], the “Restoration of MMP, OCR or growth rate” value is given as “none of these three compounds were able to restore”; the “MMP, OCR, growth rate” value is listed as “restored parameters”; the “Response to glycine and L-serine” value is listed as “loss of response”; the “Deleterious effects of peroxide (MMP, respiration, size)” value is given as “overcome the deleterious effects of peroxide”.
